# Measurements as given in US20250295627A1 (Leibniz-Institut Fuer Neurobiologie, priority 2022, published 2025).
# Legend:
# TBA2.1 and 5×FAD mice [1] = experiment: Synaptic density in stratum lacunosum moleculare of CA1 after oral Nitarsone; assay type: in vivo, mouse
# Experimental: Animals were anesthetized with ketamine/xylazine (Medistar) and transcardially perfused with 0.9% saline followed by 4% PFA. The brains were post-fixed in 4% PFA in PBS overnight, followed by immersion in 0.5 M sucrose for 24 h and then 1M sucrose for another 1 to 2 days or until the brains were sunken down. The brains were snap-frozen and cut into 35 μm thick coronal cryosections (Leica CM3050S, Leica-Microsystems). The sections were blocked in a buffer (0.3% TX-100, 10% NGS in PBS) for 30 min at RT, and incubated with primary antibodies diluted in the blocking solution, overnight at 4° C. Secondary antibodies were applied for 2 h at RT. Sections were counterstained with DAPI and mounted in Mowiol 4-88 (Merck Chemicals). For the detection of Aβ, the heat-based antigen retrieval method was used. For anti-Aβ staining, following permeabilization, brain sections were immersed into […] sodium citrate solution (Fluka, pH=9) for 30 min at 80° C. Imaging of nuclear pCREB/CREB immunoreactivities in cryosections was performed using a Leica TCS SP5 system (Leica-Microsystems). Images were acquired sequentially with a HCX ApoL20×/1.0 water objective, optical zoom 4. Sections were imaged with constant laser/detector settings along the z-axis with 400 nm step in a 512×512 pixel format.
# . For TBA2.1 mice (both sexes), treatment started at the age of 4 weeks. […]
# pCREB = pCREB in motor neurons differentiated from hiPSC (ALS model); assay type: cell-based, human; details: hiPSC-derived motor neurons, treated at day in vitro 56
# TBA2.1 and 5×FAD mice [2] = experiment: Y-maze object recognition short-term memory task; assay type: in vivo, mouse; details: 3 h between training and test, versus vehicle
# Description: (§1) . For TBA2.1 mice (both sexes), treatment started at the age of 4 weeks. The animals were group housed and force fed for 4 weeks. […] Treatment in 5×FAD male mice started at the age of 12 weeks. Here, animals were single housed right away and given a choice between voluntary and forced feeding. […] During the course of the 7th week of treatment, animals were either subjected to perfusion to obtain their brains for subsequent immunohistochemistry or they were culled to obtained native brains for electrophysiological recordings.
# Y-maze Object Recognition short-term memory task was performed according to (Creighton et al., 2019). During training session, two identical objects (3D printed rectangle) were placed at the end of arms B and C and the animal was left to explore both objects for 10 min. In order to assess short-term memory, retrieval performance was tested 3 h after training with one of the familiar objects replaced by a novel one (wooden cube). The mice were placed in the arena, and had 5 min to explore both objects. During both sessions the time animals explored the objects was scored, and a discrimination index was calculated, in the same manner as for the novel object recognition test.
# TBA2.1 and 5×FAD mice [3] = experiment: Novel object recognition and location; assay type: in vivo, mouse
# Description: as §1
# The hippocampus-dependent memory was assessed using a novel object location and novel object recognition tasks. Assays were performed as described elsewhere (Andres-Alonso et al., 2019). Briefly, training and testing were done in an open field square arena made out of plastic (50 cm×50 cm). The mice were habituated in the empty arena for 20 min. Subsequently, 2 identical objects were introduced to the maze and the animals could explore the objects in 2 training session, 20 min each. 2 h afterwards, in the memory test phase, one object was replaced with an unfamiliar, unknown object (novel object recognition). Afterwards, the location of one object was changed ([…]). During all sessions, the amount of time the animals explored the objects was recorded, and a discrimination index was calculated using the formula DI=[(Tnew−Tfamiliar)/(Tnew+Tfamiliar)]*100. The arena was cleaned with 5% ethanol before and after each animal was tested.
smiles,measurement,setting,value
"O=[N+]([O-])c1ccc([As](=O)(O)O)cc1 [Nitarsone, (4-nitrophenyl) arsonic acid]",synapse loss in the stratum lacunosum moleculare,TBA2.1 and 5×FAD mice [1]; 5×FAD mice,clearly reduced synapse loss
same,synapse loss in the stratum lacunosum moleculare,TBA2.1 and 5×FAD mice [1]; TBA2.1 mice,clearly reduced synapse loss
same,impairment of CREB function,pCREB,rescues the impairment of CREB function
same,"discrimination performance, Y-maze object recognition",TBA2.1 and 5×FAD mice [2]; 5×FAD mice,improved discrimination performance
same,"discrimination performance, Y-maze object recognition",TBA2.1 and 5×FAD mice [2]; TBA2.1 mice,improved discrimination performance
same,memory in novel location recognition task,TBA2.1 and 5×FAD mice [3]; 5×FAD mice,rescued memory
same,memory in novel object recognition task,TBA2.1 and 5×FAD mice [3]; 5×FAD mice,rescued memory
same,memory in novel location recognition task,TBA2.1 and 5×FAD mice [3]; TBA2.1 mice,rescued memory
same,memory in novel object recognition task,TBA2.1 and 5×FAD mice [3]; TBA2.1 mice,rescued memory
